Entries after “also recorded” stand apart in the source; their conditions may differ.
Tests used:
[1] = target: T1, human STING CBD-CTT (152-379) (STING152-379H) (Homo sapiens, UniProt Q86WV6); assay: Thermal shift assay (TSA) for binding to purified STING; details: purified STING152-379H
T1 construct: Fraction containing the 237 amino acid (27 kDA) STING protein; made in house; host or cells: E. coli BL21 DE3 RIPL Codon Plus
Source text: Purified STING protein was used as bait to identify binding compounds, using a thermal shift assay (TSA). A library containing 250,000 compounds (Enamine, Monmouth Jct., NJ) was surveyed. Compounds that bound to STING were then examined for their ability to inhibit STING signaling, see Examples 1-4 vide infra. In the presence of cytosolic DNA species, STING becomes activated to drive the transcription of cytokines such as type I IFN. Compounds binding to STING via TSA were subsequently examined for their ability prevent cytosolic DNA species from activating the type I interferon (IFN) promoter, using a live cell assay. This assay comprised immortalized human fibroblasts (hTERT) that were stably transfected with the type I IFN promoter driving luciferase as well as the CMV promoter driving SEAP (hTERT-pIFNβ-Glu). The ability of the small molecules to prevent activation of the type I IFN promoter and the transcription of luciferase, but not SEAP in response to cytosolic DNA species can be assessed. The activation of STING, typically by CDNs, in turn activates the transcription factors NF-κB and IRF3, both of which are required to induce the transcriptional stimulation of the Type I IFN promoter, but not the CMV promoter (IRF3 and NF-kB transcription factor binding sites are not contained in the CMV promoter). […]

STING signaling [2] = assay: qPCR of IFNβ1 / Cxcl10 in normal hTERT cells after ISD transfection; format: cell-based, human
Procedure: (§1) Example 11: qPCR total RNA were reverse-transcribed using M-MLV Reverse Transcriptase (Promega). Real-time PCR was performed using Taqman Gene Expression Assay (Applied Biosystems) for innate immune genes and inflammatory cytokines.

STING signaling [3] = assay: Confocal analysis of STING trafficking and IRF3 translocation in hTERT cells; format: cell-based, human; details: 6 hours after ISD transfection
Procedure: FIG. 2E are photographs showing confocal analysis of STING trafficking using anti-Sting performed at 6 hours after ISD transfection with Y1+220/without 220, Mock is shown (210), ISD treatment only (220) was used as control, treatment same as in FIG. 2A, according to an embodiment of the invention;
Example 10: Immunofluorescence Microscopy: Cells were cultured and treated in their appropriate media on Lab-Tek II chamber slides. Cell were fixed with 4% paraformaldehyde for 15 minutes in at 37° C. and permeabilized with 0.05% Triton X-100 for 5 minutes at room temperature. Immunostaining was performed with rabbit-anti-STING polyclonal, rabbit-anti-IRF3 (Santa Cruz Biotechnology) or rabbit-anti-p65 (Cell Signaling) followed by fluorescence conjugated secondary antibodies (FITC-goat-anti-rabbit) (Invitrogen).

STING signaling [4] = assay: qPCR of Cxcl10 / Cxcl5 in MEF cells after ISD transfection; format: cell-based, murine
Procedure: MEFs were obtained from E13.5 embryos by a standard procedure. Bone Marrow Derived Macro-phages (BMDM) were isolated from hind-limb femurs of 8-10 weeks old WT and Trex1 KO (TKO) mice. The hematopoietic cells from the bone marrow were cultured in complete DMEM (Invitrogen) including 10 ng/ml of Mouse Recombinant Colony-Stimulating Factor (M-CSF, R&D Systems) for 10 to 14 days.
as §1

STING signaling [5] = assay: IFNβ ELISA in MEF cells after ISD treatment; format: cell-based, murine
Procedure: Example 9: Interferon β Elisa analysis: Interferon β Elisa was performed using either the IFNβ human ELISA Kit from Invitrogen or the Human IFNβ ELISA Kit from PBL Interferon Source following the manufacturer's protocol.

T1 sequence (Q86WV6 with tags, fused parts or gaps): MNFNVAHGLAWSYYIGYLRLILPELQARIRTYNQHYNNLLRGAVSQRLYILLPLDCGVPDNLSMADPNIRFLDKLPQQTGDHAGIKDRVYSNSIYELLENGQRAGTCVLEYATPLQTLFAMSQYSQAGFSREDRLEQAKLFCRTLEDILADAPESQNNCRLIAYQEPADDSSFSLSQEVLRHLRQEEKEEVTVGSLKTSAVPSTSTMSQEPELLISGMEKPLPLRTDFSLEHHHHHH

SMILES: N#Cc1c(NC(=O)c2ccccc2Cl)n(Cc2ccccc2)c2nc3ccccc3nc12 [Compound Y1, N-{1-benzyl-3-cyano-1H-pyrrolo[2,3-ß]quinoxalin-2-yl}-2-chlorobenzamide]
- binding to STING (TSA) [1]: binds to and stabilizes STING; also recorded: can bind to STING
- production of STING-inducible cytokine Cxcl10 (qPCR) (STING signaling [2]; normal hTERT cells stimulated with ISD, 50 μM, 25 μM or 5 μM): robustly inhibited
- IFNβ expression (qPCR of IFNβ1) (STING signaling [2]; normal hTERT cells, 6 hours after ISD transfection): dramatically decreased IFNβ expression and production
- IRF3 translocation (confocal analysis) (STING signaling [3]): able to prevent
- STING trafficking (confocal analysis) (STING signaling [3]): effectively preventing STING trafficking; also recorded: able to prevent
- Cxcl10 production in response to ISD (qPCR) (STING signaling [4]): dramatically decreased
- Cxcl5 production in response to ISD (qPCR) (STING signaling [4]; 50 μM): dramatically decreased
- IFNβ production (ELISA) (STING signaling [5]): reproducibly decreased the production of IFNβ; also recorded: dramatically decreased
